Each block holds one compound with its values, some of them ahead of it.
How the values were obtained:
Nematodirus spp. = test: Anthelmintic efficacy in sheep carrying oxfendazole-resistant nematodes; assay type: in vivo
Procedure: (§1) Animals are then subjected to necropsy on day 6 post-treatment. Gastrointestinal tract, lungs, and liver are examined using standard parasitological techniques for nematode and trematode parasites.
(§2) (B) Sheep carrying nematodes with varying degrees of resistance to oxfendazole were treated with either levamisole, oxfendazole, or amorphous oxfendazole in accordance with the above procedure.
(§3) • Ost = Ostertagia spp. • Tri = Trichostrongylus spp. • Nem = Nematodirus spp. • Oes = Oesophagostomum spp. • Tr.o = Trichuris ovis

Oesophagostomum spp. = test: as above; assay type: in vivo
Procedure: as §1, §2, §3

Ostertagia spp. [1] = test: as above; assay type: in vivo
Procedure: as §1, §2, §3

Trichostrongylus spp. [2] = test: as above; assay type: in vivo
Procedure: as §1, §2, §3

Trichuris ovis = test: as above; assay type: in vivo
Procedure: as §1, §2, §3

Dissolution rate at pH 2 = assay type: physicochemical
From the text: The dissolution rate of amorphous fenbendazole versus crystalline fenbendazole at pH 2 was studied as a model for showing the bioavailability of the amorphous compound.

Ostertagia spp. [3] = test: Anthelmintic efficacy in naturally infected goats, necropsy on day 6 post-treatment; assay type: in vivo; conditions: necropsy day 6 post-treatment
Procedure: (§4) (A) Fifteen (15) goats, preferably from a single source, known to be infected with nematode parasites as evidenced by positive fecal egg counts are used. The animals would be preferably of one sex. They will have been to be contaminated with goat parasite eggs and larvae, particularly Ostertagia spp. (hereinafter "Ost") and Trichostrongylus spp. (hereinafter "Tri") • 1. - Control • 2. - 9 mg amorphous oxfendazole/kg • 3. - 15 mg oxfendazole/kg Animals are then subjected to necropsy on day 6 post-treatment. Gastrointestinal tract, lungs, and liver are examined using standard parasitological techniques for nematode and trematode parasites.

Trichostrongylus spp. [4] = test: as above; assay type: in vivo; conditions: necropsy day 6 post-treatment
Procedure: as §4

nematode parasites = test: Overall comparison of the goat and sheep efficacy studies; assay type: in vivo; conditions: goat and sheep studies together
From the text: (A) Fifteen (15) goats, preferably from a single source, known to be infected with nematode parasites as evidenced by positive fecal egg counts are used. The animals would be preferably of one sex. They will have been to be contaminated with goat parasite eggs and larvae, particularly Ostertagia spp. (hereinafter "Ost") and Trichostrongylus spp. (hereinafter "Tri")
as §1, §2

[5] = Blood plasma levels after oral administration to dogs; assay type: in vivo; conditions: 10 mg/kg; for Area Under the Curve / Area Under the Curve, mean (n = 6): plasma concentration vs time, 18720 min
Procedure: Dogs were administered orally either amorphous or crystalline oxfendazole at a dose of 10 mg/kg.
Blood samples were drawn and analyzed before administration and on days 1, 2, 3, 7, 10, and 13 following administration. The area under the curve was calculated for plasma concentration vs time profile.

[6] = administered to humans; cited from earlier work

Compound: c1ccc([C@H]2CN3CCSC3=N2)cc1 [Levamisole]
Percent Efficacy Nem (Nematodirus spp.; 8 mg/kg): 100%
Percent Efficacy Oes (Oesophagostomum spp.; 8 mg/kg): 100%
Percent Efficacy Ost (Ostertagia spp. [1]; 8 mg/kg): 98%
Percent Efficacy Tri (Trichostrongylus spp. [2]; 8 mg/kg): 49%
Percent Efficacy Tr. o (Trichuris ovis; 8 mg/kg): 37%

Compound: COC(=O)Nc1nc2ccc(Sc3ccccc3)cc2[nH]1 [amorphous fenbendazole, methyl 5-(phenylthio)-lH-benzimidazol-2-yl carbamate]
% Dissolved (Dissolution rate at pH 2; pH 2, 5 min): 73%
% Dissolved (Dissolution rate at pH 2; pH 2, 15 min): 91%
% Dissolved (Dissolution rate at pH 2; pH 2, 30 min): 125%
% Dissolved (Dissolution rate at pH 2; pH 2, 60 min): 130%
% Dissolved (Dissolution rate at pH 2; pH 2, 90 min): 112%
solubility compared with crystalline fenbendazole (Dissolution rate at pH 2; pH 2, over time): more soluble than crystalline fenbendazole and remains more soluble over time

Area Under the Curve ([5]; Dog No. A): 20465.0 ng/ml hr
Area Under the Curve ([5]; Dog No. B): 9717.5 ng/ml hr
Area Under the Curve ([5]; Dog No. C): 11592.5 ng/ml hr
Area Under the Curve ([5]; Dog No. D): 24245.0 ng/ml hr
Area Under the Curve ([5]; Dog No. E): 12653.8 ng/ml hr
Area Under the Curve ([5]; Dog No. F): 25475.0 ng/ml hr
plasma level of oxfendazole compared with oxfendazole in commercially available form ([5]; dogs): higher plasma level of oxfendazole
Area Under the Curve, mean (n = 6) ([5]; dogs): 17358.1 ng/ml hr
Compound: COC(=O)Nc1nc2ccc([S+]([O-])c3ccccc3)cc2[nH]1 (stereo not drawn) [amorphous oxfendazole, methyl 5-(phenylsulfinyl)-lH-benzimidazol-2-yl carbamate]
Percent Efficacy Ost (Ostertagia spp. [3]; 9 mg/kg): 70%
Percent Efficacy Tri (Trichostrongylus spp. [4]; 9 mg/kg): 98%
Percent Efficacy Nem (Nematodirus spp.; 3 mg/kg): 57%
Percent Efficacy Nem (Nematodirus spp.; 6 mg/kg): 82%
Percent Efficacy Oes (Oesophagostomum spp.; 3 mg/kg): 100%
Percent Efficacy Oes (Oesophagostomum spp.; 6 mg/kg): 100%
Percent Efficacy Ost (Ostertagia spp. [1]; 3 mg/kg): 55%
Percent Efficacy Ost (Ostertagia spp. [1]; 6 mg/kg): 22%
Percent Efficacy Tri (Trichostrongylus spp. [2]; 3 mg/kg): 100%
Percent Efficacy Tri (Trichostrongylus spp. [2]; 6 mg/kg): 100%
Percent Efficacy Tr. o (Trichuris ovis; 3 mg/kg): 9.5%
Percent Efficacy Tr. o (Trichuris ovis; 6 mg/kg): 69%
dose for approximately equivalent efficacy, relative to that required for oxfendazole (nematode parasites): about 60%

Compound: COC(=O)Nc1nc2cc(Sc3ccccc3)ccc2[nH]1 [crystalline fenbendazole, methyl 5-(phenylthio)-lH-benzimidazol-2-yl carbamate]
% Dissolved (Dissolution rate at pH 2; pH 2, 5 min): 21%
% Dissolved (Dissolution rate at pH 2; pH 2, 15 min): 22%
% Dissolved (Dissolution rate at pH 2; pH 2, 30 min): 46%
% Dissolved (Dissolution rate at pH 2; pH 2, 60 min): 41%
% Dissolved (Dissolution rate at pH 2; pH 2, 90 min): 25%

Compound: COC(=O)Nc1nc2ccc(C(=O)c3ccccc3)cc2[nH]1 [crystalline mebendazole, methyl 5-benzoyl-lH-benzimidazol-2-yl carbamate]
absorbed [6]: 3-4%

Area Under the Curve ([5]; Dog No. A, listed as Crystalline Ox.): 2700.0 ng/ml hr
Area Under the Curve ([5]; Dog No. B, listed as Crystalline Ox.): 2622.0 ng/ml hr
Area Under the Curve ([5]; Dog No. C, listed as Crystalline Ox.): 2130.0 ng/ml hr
Area Under the Curve ([5]; Dog No. D, listed as Crystalline Ox.): 3341.0 ng/ml hr
Area Under the Curve ([5]; Dog No. E, listed as Crystalline Ox.): 3107.5 ng/ml hr
Area Under the Curve ([5]; Dog No. F, listed as Crystalline Ox.): 4149.5 ng/ml hr
Area Under the Curve, mean (n = 6) ([5]; dogs, listed as Crystalline Ox.): 3008.4 ng/ml hr
Compound: COC(=O)Nc1nc2ccc([S+]([O-])c3ccccc3)cc2[nH]1 (stereo not drawn) [oxfendazole, methyl 5-(phenylsulfinyl)-lH-benzimidazol-2-yl carbamate]
Percent Efficacy Ost (Ostertagia spp. [3]; 15 mg/kg): 77%
Percent Efficacy Tri (Trichostrongylus spp. [4]; 15 mg/kg): 80%
Percent Efficacy Nem (Nematodirus spp.; 5 mg/kg): 22%
Percent Efficacy Nem (Nematodirus spp.; 10 mg/kg): 80%
Percent Efficacy Oes (Oesophagostomum spp.; 5 mg/kg): 100%
Percent Efficacy Oes (Oesophagostomum spp.; 10 mg/kg): 100%
Percent Efficacy Ost (Ostertagia spp. [1]; 5 mg/kg): 0%
Percent Efficacy Ost (Ostertagia spp. [1]; 10 mg/kg): 28%
Percent Efficacy Tri (Trichostrongylus spp. [2]; 5 mg/kg): 100%
Percent Efficacy Tri (Trichostrongylus spp. [2]; 10 mg/kg): 99.7%
Percent Efficacy Tr. o (Trichuris ovis; 5 mg/kg): 38%
Percent Efficacy Tr. o (Trichuris ovis; 10 mg/kg): 62%
